Here are results for one compound from ChEMBL document CHEMBL1155753, “Verbalactone, a new macrocyclic dimer lactone from the roots of Verbascum undulatum with antibacterial activity” (2001).

The subject of one test is Escherichia coli. The test can be described thus: Antibacterial activity against Escherichia coli ATCC 25922 after 24 hrs by agar dilution method. It counts as functional. Conditions: ATCC 25922, 24 h.
The subject of a further test is Staphylococcus aureus. Kind of test: Antibacterial activity against Staphylococcus aureus ATCC 25923 after 24 hrs by agar dilution method. It counts as functional. Conditions: ATCC 25923, 24 h.
A further test has as its system Pseudomonas aeruginosa. The test can be described thus: Antibacterial activity against Pseudomonas aeruginosa ATCC 27853 after 24 hrs by agar dilution method. Conditions: ATCC 27853, 24 h. It counts as functional. (In agar dilution, organisms are placed on agar that contains the substance at set levels.)
The test system of another test is Klebsiella pneumoniae. Kind of test: Antibacterial activity against Klebsiella pneumoniae isolate after 24 hrs by agar dilution method. The class given is functional.
For test [1], the system named is Salmonella enterica subsp. enterica. Kind of test: Antibacterial activity against Salmonella enteritidis isolate after 24 hrs by agar dilution method. The class given is functional, Salmonella enterica subsp. enterica serovar Enteritidis.
Test [2] deals with Staphylococcus epidermidis. The test can be described thus: Antibacterial activity against Staphylococcus epidermidis isolate after 24 hrs by agar dilution method. It counts as functional.
In a further test the test system is Klebsiella aerogenes. Kind of test: Antibacterial activity against Enterobacter aerogenes isolate after 24 hrs by agar dilution method. The class given is functional.
The test system of a further test is Lacticaseibacillus casei. The test can be described thus: Antibacterial activity against Lactobacillus casei isolate after 24 hrs by agar dilution method. The class given is functional.

Values after ≈ are worked out from the molar mass of the structure shown.

By MIC is commonly meant the lowest concentration that inhibits growth of the organism. A low value points to greater potency.

For `CCCCC[C@@H]1C[C@@H](O)CC(=O)O[C@H](CCCCC)C[C@@H](O)CC(=O)O1` [VERBALACTONE], the MIC with Escherichia coli is 250 µg/mL (≈ 671 µM); in the test with Staphylococcus aureus, 62.5 µg/mL (≈ 168 µM); against Pseudomonas aeruginosa, 500 µg/mL (≈ 1340 µM); against Klebsiella pneumoniae, 250 µg/mL (≈ 671 µM); in test [1] it was 125 µg/mL (≈ 336 µM); in test [2], 62.5 µg/mL (≈ 168 µM). The figures for the MIC in the test on Klebsiella aerogenes and with Lacticaseibacillus casei were > 500 µg/mL and > 125 µg/mL, respectively.
